We go through two molecules from ChEMBL document CHEMBL1151389, “Antitumor agents 57. The isolation and structural elucidation of microhelenin-E, a new antileukemic nor-pseudoguaianolide, and microhelenin-F from Helenium microcephalum” (1982).

For one assay, the system named is P388. The assay can be described thus: Antileukemic activity against mouse P388 cells […] in BDF1 mouse at 8 mg/kg. Format: functional.
The test system of a further assay is KB. The assay can be described thus: Cytotoxicity against human KB cells. Format: functional. As to conditions: read-out: ED50 (the source's name).

Converted amounts (≈) assume the structure as drawn.

Usually T/C stands for the ratio of treated to control. As to `CC(C)=C1C(=O)O[C@@H]2C[C@@H](C)[C@]3(O)C=CC(=O)[C@@H]3C[C@H]12` [MICROHELENIN E], the T/C in the assay with P388 is 166%. Further, the EC50 with KB worked out at 1.38 µg/mL (≈ 4.99 µM).

Turning to `CC(C)=C1C(=O)O[C@@H]2C[C@@H](C)[C@@H]3C=CC(=O)[C@]3(O)C[C@H]12` [MICROHELENIN F], the T/C in the assay with P388 worked out at 116%. For the same molecule, in the assay on KB, the EC50 is 11 µg/mL (≈ 39.8 µM).
